In patent US7851469B2, “Isoxazole-imidazole derivatives” (Hoffmann-La Roche Inc., priority 2007, dated 2010):

Target: T1, GABA A receptor α5β3γ2 (hα5) (Homo sapiens, UniProt P18507+P31644)
T1 construct: expressed in transfected cells; host or cells: HEK293 (transiently transfected; membranes)
Assay: [3H]flumazenil competition binding assay, human GABA A α5 receptor
Conditions: displacement of [3H]flumazenil (0.5 nM) from HEK293 cell membranes expressing α5β3γ2; means of two determinations
Method: Membrane Preparation and Binding Assay
The affinity of compounds at GABA A receptor subtypes was measured by competition for [3H]flumazenil (85 Ci/mmol; Roche) binding to HEK293 cells expressing rat (stably transfected) or human (transiently transfected) receptors of composition α1β3γ2, α2β3γ2, α3β3γ2 and α5β3γ2.
Cell pellets were suspended in Krebs-tris buffer (4.8 mM KCl, 1.2 mM CaCl2, 1.2 mM MgCl2, 120 mM NaCl, 15 mM Tris; pH 7.5; binding assay buffer), homogenized by polytron for ca. 20 sec on ice and centrifuged for 60 min at 4° C. (50000 g; Sorvall, rotor: SM24=20000 rpm). The cell pellets were resuspended in Krebs-tris buffer and homogenized by polytron for ca. 15 sec on ice. Protein was measured (Bradford method, Bio-Rad) and aliquots of 1 mL were prepared and stored at −80° C.
Radioligand binding assays were carried out in a volume of […] (96-well plates) which contained […] of cell membranes, [3H]flumazenil at a concentration of 1 nM for α1, α2, α3 subunits and 0.5 nM for α5 subunits and the test compound in the range of […]. Nonspecific binding was defined by 10^−5 M diazepam and typically represented less than 5% of the total binding. Assays were incubated to equilibrium for 1 hour at 4° C. and harvested onto GF/C uni-filters (Packard) by filtration using a Packard harvester and washing with ice-cold wash buffer (50 mM Tris; pH 7.5). After drying, filter-retained radioactivity was detected by liquid scintillation counting. Ki values were calculated using Excel-Fit (Microsoft) and are the means of two determinations.

Going from `Cc1ccc(-n2cnc(-c3c(-c4ccccc4)noc3C(F)(F)F)c2)cc1` [Example 8, 3-Phenyl-4-(1-p-tolyl-1H-imidazol-4-yl)-5-trifluoromethyl-isoxazole] to `COc1ccc(-n2cnc(-c3c(-c4ccccc4)noc3C(F)(F)F)c2)cc1` [Example 9, 4-[1-(4-Methoxy-phenyl)-1H-imidazol-4-yl]-3-phenyl-5-trifluoromethyl-isoxazole], the Ki falls from 84.2 nM to 46.1 nM (1.8-fold).

`O=C(c1ccc(-n2cnc(-c3c(-c4ccc(F)cc4)noc3C(F)(F)F)c2)cc1)N1CCS(=O)(=O)CC1` [Example 35, (1,1-Dioxo-1λ6-thiomorpholin-4-yl)-(4-{4-[3-(4-fluoro-phenyl)-5-trifluoromethyl-isoxazol-4-yl]-imidazol-1-yl}-phenyl)-methanone] and `O=C(O)c1ccc(-n2cnc(-c3c(-c4ccc(F)cc4)noc3C(F)(F)F)c2)cc1` [Example 28, 4-{4-[3-(4-Fluoro-phenyl)-5-trifluoromethyl-isoxazol-4-yl]-imidazol-1-yl}-benzoic acid] are within 1.5-fold of each other in Ki: 87.4 nM for the first, 76.7 nM for the second.

First: N#Cc1ccc(-n2cnc(-c3c(-c4ccccc4)noc3C(F)(F)F)c2)cc1 [Example 5, 4-[4-(3-Phenyl-5-trifluoromethyl-isoxazol-4-yl)-imidazol-1-yl]-benzonitrile]
Second: O=[N+]([O-])c1ccc(-n2cnc(-c3c(-c4ccccc4)noc3C(F)(F)F)c2)cc1 [Example 7, 4-[1-(4-Nitro-phenyl)-1H-imidazol-4-yl]-3-phenyl-5-trifluoromethyl-isoxazole]
The Ki of the first is 2.1-fold higher: 41.2 nM for the first, 19.7 nM for the second.

`CC(=O)c1ccc(-n2cnc(-c3c(-c4ccccc4)noc3C(F)(F)F)c2)cc1` [Example 3, 1-{4-[4-(3-Phenyl-5-trifluoromethyl-isoxazol-4-yl)-imidazol-1-yl]-phenyl}-ethanone] and `O=C(NC1CC1)c1ccc(-n2cnc(-c3c(-c4ccccc4)noc3C(F)(F)F)c2)cc1` [Example 12, N-Cyclopropyl-4-[4-(3-phenyl-5-trifluoromethyl-isoxazol-4-yl)-imidazol-1-yl]-benzamide] are within 1.5-fold of each other in Ki: 12.5 nM for the first, 11.7 nM for the second.

Going from `O=C(NCC(F)(F)F)c1ccc(-n2cnc(-c3c(-c4ccccc4)noc3C(F)(F)F)c2)cc1` [Example 11, 4-[4-(3-Phenyl-5-trifluoromethyl-isoxazol-4-yl)-imidazol-1-yl]-N-(2,2,2-trifluoro-ethyl)-benzamide] to `FC(F)(F)c1ccc(-n2cnc(-c3c(-c4ccccc4)noc3C(F)(F)F)c2)cc1` [Example 4, 3-Phenyl-5-trifluoromethyl-4-[1-(4-trifluoromethyl-phenyl)-1H-imidazol-4-yl]-isoxazole], the Ki rises from 17.6 nM to 39.7 nM (2.3-fold). The first binds more tightly here.

`CC(C)(O)c1ccc(-n2cnc(-c3c(-c4ccc(F)cc4)noc3C(F)(F)F)c2)nc1` [Example 43, 2-(6-{4-[3-(4-Fluoro-phenyl)-5-trifluoromethyl-isoxazol-4-yl]-imidazol-1-yl}-pyridin-3-yl)-propan-2-ol] and `CC(C)(O)c1ccc(-n2cnc(-c3c(-c4ccc(F)cc4)noc3C(F)(F)F)c2)cc1` [Example 29, 2-(4-{4-[3-(4-Fluoro-phenyl)-5-trifluoromethyl-isoxazol-4-yl]-imidazol-1-yl}-phenyl)-propan-2-ol] are within 1.5-fold of each other in Ki: 38.2 nM for the first, 28.4 nM for the second.

`COC(=O)c1ccc(-n2cnc(-c3c(-c4ccc(F)cc4)noc3C(F)(F)F)c2)cc1` [Example 27, 4-{4-[3-(4-Fluoro-phenyl)-5-trifluoromethyl-isoxazol-4-yl]-imidazol-1-yl}-benzoic acid methyl ester] and `NC(=O)c1ccc(-n2cnc(-c3c(-c4ccc(F)cc4)noc3C(F)(F)F)c2)cc1` [Example 31, 4-{4-[3-(4-Fluoro-phenyl)-5-trifluoromethyl-isoxazol-4-yl]-imidazol-1-yl}-benzamide] are within 1.5-fold of each other in Ki: 22.1 nM for the first, 17.1 nM for the second.

Going from `O=C(NCC1CC1)c1ccc(-n2cnc(-c3c(-c4ccccc4)noc3C(F)(F)F)c2)cc1` [Example 10, N-Cyclopropylmethyl-4-[4-(3-phenyl-5-trifluoromethyl-isoxazol-4-yl)-imidazol-1-yl]-benzamide] to `O=C(NC1CCOCC1)c1ccc(-n2cnc(-c3c(-c4ccccc4)noc3C(F)(F)F)c2)cc1` [Example 13, 4-[4-(3-Phenyl-5-trifluoromethyl-isoxazol-4-yl)-imidazol-1-yl]-N-(tetrahydro-pyran-4-yl)-benzamide], the Ki rises from 23.6 nM to 41.2 nM (1.7-fold).

Compared with `CC(=O)c1ccc(-n2cnc(-c3c(-c4ccc(F)cc4)noc3C(F)(F)F)c2)nc1` [Example 36, 1-(6-{4-[3-(4-Fluoro-phenyl)-5-trifluoromethyl-isoxazol-4-yl]-imidazol-1-yl}-pyridin-3-yl)-ethanone], `O=C(NC1CC1)c1ccc(-n2cnc(-c3c(-c4ccc(F)cc4)noc3C(F)(F)F)c2)nc1` [Example 40, N-Cyclopropyl-6-{4-[3-(4-fluoro-phenyl)-5-trifluoromethyl-isoxazol-4-yl]-imidazol-1-yl}-nicotinamide] is 4.2-fold lower in Ki: 17.2 nM for the first, 4.1 nM for the second.

First: O=C(NCC(F)(F)F)c1ccc(-n2cnc(-c3c(-c4ccc(F)cc4)noc3C(F)(F)F)c2)nc1 [Example 39, 6-{4-[3-(4-Fluoro-phenyl)-5-trifluoromethyl-isoxazol-4-yl]-imidazol-1-yl}-N-(2,2,2-trifluoro-ethyl)-nicotinamide]
Second: N#Cc1ccc(-n2cnc(-c3c(-c4ccc(F)cc4)noc3C(F)(F)F)c2)nc1 [Example 37, 6-{4-[3-(4-Fluoro-phenyl)-5-trifluoromethyl-isoxazol-4-yl]-imidazol-1-yl}-nicotinonitrile]
The Ki of the first is 6.6-fold lower: 4.9 nM for the first, 32.3 nM for the second. The first binds more tightly here.

`FC(F)(F)c1onc(-c2ccccc2)c1-c1cn(-c2ncccn2)cn1` [Example 54, 2-[4-(3-Phenyl-5-trifluoromethyl-isoxazol-4-yl)-imidazol-1-yl]-pyrimidine] and `FC(F)(F)c1onc(-c2ccccc2)c1-c1cn(-c2ccccc2)cn1` [Example 1, 3-Phenyl-4-(1-phenyl-1H-imidazol-4-yl)-5-trifluoromethyl-isoxazole] are within 1.5-fold of each other in Ki: 73 nM for the first, 53.2 nM for the second.

Going from `O=C(NC1CC1)c1cnc(-n2cnc(-c3c(-c4ccccc4)noc3C(F)(F)F)c2)cn1` [Example 55, 5-[4-(3-Phenyl-5-trifluoromethyl-isoxazol-4-yl)-imidazol-1-yl]-pyrazine-2-carboxylic acid cyclopropylamide] to `COC(=O)c1ccc(-n2cnc(-c3c(-c4ccccc4)noc3C(F)(F)F)c2)nc1` [Example 17, 6-[4-(3-Phenyl-5-trifluoromethyl-isoxazol-4-yl)-imidazol-1-yl]-nicotinic acid methyl ester], the Ki rises from 14.1 nM to 31.5 nM (2.2-fold).

Compared with `O=C(c1ccc(-n2cnc(-c3c(-c4ccccc4)noc3C(F)(F)F)c2)nc1)N1CCSCC1` [Example 23, {6-[4-(3-Phenyl-5-trifluoromethyl-isoxazol-4-yl)-imidazol-1-yl]-pyridin-3-yl}-thiomorpholin-4-yl-methanone], `O=C(NC1CCOCC1)c1ccc(-n2cnc(-c3c(-c4ccc(Cl)cc4)noc3C(F)(F)F)c2)nc1` [Example 51, 6-{4-[3-(4-Chloro-phenyl)-5-trifluoromethyl-isoxazol-4-yl]-imidazol-1-yl}-N-(tetrahydro-pyran-4-yl)-nicotinamide] is 11-fold lower in Ki: 91.1 nM for the first, 8.5 nM for the second. The second binds more tightly here.

Compound `O=[N+]([O-])c1ccc(-n2cnc(-c3c(-c4ccc(Cl)cc4)noc3C(F)(F)F)c2)cc1` [Example 47, 3-(4-Chloro-phenyl)-4-[1-(4-nitro-phenyl)-1H-imidazol-4-yl]-5-trifluoromethyl-isoxazole] has a Ki of 58.6 nM.
